Measurements as given in ChEMBL document CHEMBL1201862, “PubChem BioAssay data set” (2004).
One block for each compound: values may come before it. Calls of active or inactive are those of the source.

Experiments:
[1] = target: T1, Oxysterols receptor LXR-beta (Homo sapiens, UniProt P55055); assay: LXR agonists, Gal4 luciferase reporter, dose response, counter-screen for ssDAF-12 agonist project, cell-based, luminescence, HEK293, S. stercoralis campaign (AID 720737); type: functional; details: read-out: IC50 (the source's name)
T1 sequence (P55055 whole entry): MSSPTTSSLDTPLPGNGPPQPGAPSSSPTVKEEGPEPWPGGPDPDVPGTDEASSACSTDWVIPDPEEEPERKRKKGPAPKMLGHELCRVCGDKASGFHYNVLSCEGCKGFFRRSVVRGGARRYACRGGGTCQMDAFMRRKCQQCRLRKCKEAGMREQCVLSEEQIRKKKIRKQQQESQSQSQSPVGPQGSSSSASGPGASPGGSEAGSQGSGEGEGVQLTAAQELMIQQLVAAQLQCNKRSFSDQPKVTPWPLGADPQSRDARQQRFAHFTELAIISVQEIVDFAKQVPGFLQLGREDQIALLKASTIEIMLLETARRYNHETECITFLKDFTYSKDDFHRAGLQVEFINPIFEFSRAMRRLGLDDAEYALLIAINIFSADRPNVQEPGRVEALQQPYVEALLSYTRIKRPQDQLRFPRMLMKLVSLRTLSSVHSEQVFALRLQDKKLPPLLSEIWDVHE

[2] = Luminescence-based cell-based high throughput dose response assay to identify activators of the DAF-12 from the parasite S. stercoralis (ssDAF-12).; type: functional
Ephrin type-A receptor 4 = Ephrin type-A receptor 4 (Mus musculus, UniProt Q03137); assay: EphA4 ligand-binding antagonists – biochemical, colorimetric, mouse EphA4, primary screen (AID 689); type: functional
CHO = CHO cell viability loss, potency – luminescence, cytotoxicity control for TLR9-MyD88 binding inhibitor project, dose response (AID 588339); type: functional, cell-based, hamster; details: Cricetulus griseus;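 further: CHO cells stably coexpressing TLR9 and MyD88 fusions from primary screen; compound exposure lasted 48 hours before viability readout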
[3] = target: T2, Zinc finger protein mex-5 (Caenorhabditis elegans, UniProt Q9XUB2); assay: potency of MEX-5 RNA-binding blockers – biochemical, C. elegans, fluorescence polarization, dose response (AID 1960)
T2 sequence (Q9XUB2 whole entry): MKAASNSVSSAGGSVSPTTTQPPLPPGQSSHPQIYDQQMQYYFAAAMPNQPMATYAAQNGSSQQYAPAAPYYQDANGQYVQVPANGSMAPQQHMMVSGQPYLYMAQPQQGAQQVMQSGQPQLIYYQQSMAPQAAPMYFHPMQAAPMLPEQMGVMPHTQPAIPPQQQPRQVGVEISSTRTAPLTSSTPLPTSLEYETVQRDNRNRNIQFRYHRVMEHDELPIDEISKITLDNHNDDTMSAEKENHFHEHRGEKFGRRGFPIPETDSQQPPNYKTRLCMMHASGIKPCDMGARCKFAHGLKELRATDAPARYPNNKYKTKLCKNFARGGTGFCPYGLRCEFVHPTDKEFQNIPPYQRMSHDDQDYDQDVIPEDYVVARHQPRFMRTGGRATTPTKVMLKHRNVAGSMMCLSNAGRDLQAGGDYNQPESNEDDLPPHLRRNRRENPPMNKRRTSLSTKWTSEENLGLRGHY

[4] = target: T3, RNA-binding protein pos-1 (Caenorhabditis elegans, UniProt G5EF15); assay: disruptors of C. elegans POS-1 RNA interaction – biochemical, fluorescence polarization, dose response (AID 1964);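 further: purified POS-1 fused to maltose binding protein made in E. coli; potency of compounds blocking POS-1 binding to fluorescent RNA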
T3 sequence (G5EF15 whole entry): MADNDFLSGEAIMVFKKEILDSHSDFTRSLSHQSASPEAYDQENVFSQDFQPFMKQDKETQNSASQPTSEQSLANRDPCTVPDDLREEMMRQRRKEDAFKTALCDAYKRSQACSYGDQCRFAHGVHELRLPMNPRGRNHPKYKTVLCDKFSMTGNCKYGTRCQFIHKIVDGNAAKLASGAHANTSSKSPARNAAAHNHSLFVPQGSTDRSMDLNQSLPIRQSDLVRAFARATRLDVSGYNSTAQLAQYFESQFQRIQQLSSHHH

Beta Lactamase = Beta Lactamase (Pseudomonas aeruginosa, UniProt Q932Y6); assay: BLA reporter interference, concentration series – BLA reporter cells, FRET fluorescence, artefact control for TLR9-MyD88 binding inhibitor project, dose response (AID 588341); type: cell-based;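 further: cell based assay in CHO-K1 cells stably expressing beta-lactamase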
[5] = HIV-1 Vif–A3G interaction blockers – biochemical, TR-FRET, GST-Vif 1-94, biotin-A3G peptide, dose response retest, primary screen (AID 1117319); type: functional;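 further: TR-FRET signal of purified GST-Vif binding a biotinylated A3G peptide; inhibitors lower the FRET signal by blocking Vif and A3G binding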
[6] = viability loss in THP-1 monocytes – THP-1 cells, cytotoxicity control for Vif-APOBEC3G degradation inhibitor project, dose response (AID 1117359); type: functional; details: THP-1
Cytochrome P450 2C19 [7] = target: T4, Cytochrome P450 2C19 (Homo sapiens, UniProt P33261); assay: qHTS Assay for Inhibitors and Substrates of Cytochrome P450 2C19. [Related pubchem assays: 410 ]; type: ADME; details: read-out: Potency
Protein Tat = Protein Tat (Human immunodeficiency virus type 1 group M subtype B (isolate HXB2)(HIV-1), UniProt P04608); type: functional;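 further: tat binding to TAR RNA read out by fluorescence polarization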
Cytochrome P450 2C19 [8] = target: T4, Cytochrome P450 2C19; assay: Cytochrome panel assay with activity outcomes. Panel member name: p450-cyp2c19 Compounds with AC50 equal or less than 10 uM are considered active; type: functional; details: read-out: AC50
Cytochrome P450 2C9 = Cytochrome P450 2C9 (Homo sapiens, UniProt P11712)
[9] = target: Aryl hydrocarbon receptor (Homo sapiens, UniProt P35869); assay: Luminescence-based cell-based high throughput dose response assay for activators of the Aryl Hydrocarbon Receptor (AHR). [Related pubchem assays: 2796 (Primary screen (AHR activators in singlicate)), 2845 (Confirmation screen (AHR activators in triplicate)), 434939 (Counterscreen (PXR activators in triplicate)), 2804 (Summary (AHR activators))]; type: ADME
[10] = target: T5, Microphthalmia-associated transcription factor (Homo sapiens, UniProt O75030); assay: reducers of TRPM1 reporter luminescence, concentration series – cell-based, SK-MEL-5, cherry-picked, set 3, MITF inhibitor project, dose response (AID 493073); type: functional;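 further: SK-MEL-5 melanoma cells with luciferase driven by the MITF target TRPM1 promoter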
T5 sequence (O75030 whole entry): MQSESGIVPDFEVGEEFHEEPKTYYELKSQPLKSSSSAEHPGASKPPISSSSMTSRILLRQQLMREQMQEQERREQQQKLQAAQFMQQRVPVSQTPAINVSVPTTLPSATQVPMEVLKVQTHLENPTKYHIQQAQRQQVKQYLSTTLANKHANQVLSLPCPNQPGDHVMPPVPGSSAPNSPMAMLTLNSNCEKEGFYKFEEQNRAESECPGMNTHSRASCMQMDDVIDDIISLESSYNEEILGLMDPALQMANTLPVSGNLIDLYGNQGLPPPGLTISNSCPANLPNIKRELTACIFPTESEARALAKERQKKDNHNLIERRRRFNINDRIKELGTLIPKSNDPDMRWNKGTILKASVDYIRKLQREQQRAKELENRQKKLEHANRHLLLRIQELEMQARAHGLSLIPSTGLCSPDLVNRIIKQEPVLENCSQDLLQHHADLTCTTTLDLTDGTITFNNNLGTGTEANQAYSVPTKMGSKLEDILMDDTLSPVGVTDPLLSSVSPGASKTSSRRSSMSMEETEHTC

[11] = HIV-1 AD8 envelope cell-cell fusion blockers – cherry-pick, dose response (AID 652062); type: functional, cell-based;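 further: luciferase signal from cell-cell fusion driven by HIV-1 clade B AD8 Env; potency is for inhibitors of fusion seen as a drop in luminescence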
[12] = viability loss in CEM21 cells – cell-based, CellTiter-Glo luminescence, cherry-picked, cytotoxicity control for viral fusion inhibitor project, dose response (AID 652042); type: functional;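 further: potency for signal decrease meaning cytotoxicity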
[13] = blockers of HIV-1 envelope-mediated cell-cell fusion – cherry-pick, dose response (AID 652057); type: functional, cell-based
[14] = off-target signal loss in HeLa-CEM21 co-culture – HeLa F-luc CTL cells, cherry-picked, counter-screen for HIV-1 Env fusion inhibitor project, dose response (AID 652040); type: functional, cell-based;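 further: potency for signal decrease marking cytotoxic or nonspecific inhibition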
[15] = blockers of HIV-1 ZM109 envelope-driven cell-cell fusion – HeLa effector, CEM target cells, luciferase, cherry-pick, dose response (AID 652058); type: functional, cell-based;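 further: luciferase signal from HIV-1 Env mediated cell-cell fusion of effector and target cells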
[16] = target: T6, Heat shock factor protein 1 (Mus musculus, UniProt P38532); assay: decrease of HSF1-responsive luciferase luminescence – cell-based, NIH3T3, dose retest, confirmation (AID 2382); type: functional;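 further: NIH3T3 fibroblasts with HSF1-driven luciferase reporter stressed by proteasome inhibitor MG132; luminescence from HSF1-driven luciferase expression after 8 hours of MG132 stress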
T6 sequence (P38532 whole entry): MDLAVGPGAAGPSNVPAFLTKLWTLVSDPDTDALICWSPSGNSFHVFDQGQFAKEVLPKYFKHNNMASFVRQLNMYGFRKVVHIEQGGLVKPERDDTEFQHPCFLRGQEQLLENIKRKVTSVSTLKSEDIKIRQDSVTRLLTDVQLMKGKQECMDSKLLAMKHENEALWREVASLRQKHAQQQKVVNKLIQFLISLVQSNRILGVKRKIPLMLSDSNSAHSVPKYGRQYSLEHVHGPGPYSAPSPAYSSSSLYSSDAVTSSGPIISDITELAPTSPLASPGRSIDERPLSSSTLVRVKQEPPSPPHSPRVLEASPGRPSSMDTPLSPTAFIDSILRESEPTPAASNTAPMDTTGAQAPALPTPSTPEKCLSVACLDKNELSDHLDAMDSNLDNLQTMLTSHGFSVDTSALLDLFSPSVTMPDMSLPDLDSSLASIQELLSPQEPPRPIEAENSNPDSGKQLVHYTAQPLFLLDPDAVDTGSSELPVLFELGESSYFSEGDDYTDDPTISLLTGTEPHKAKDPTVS

[17] = Dd2 malaria parasite growth inhibition potency – SYBR Green, dry powder samples, dose response (AID 1159566); type: functional, cell-based;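 further: potency for growth inhibition with lower SYBR green DNA signal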
[18] = growth inhibition of yeast DHODH-expressing 3D7 parasites – SYBR Green, dry powder samples, dose response (AID 1159570); type: functional, cell-based;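 further: parasite growth measured after 72 hours of compound exposure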
[19] = growth inhibition of PfATP4-mutant resistant parasites – NITD609-resistant line, SYBR Green, dry powder, dose response (AID 1159571); type: functional, cell-based;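 further: parasites synchronized at ring stage by sorbitol before testing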
[20] = P. falciparum Dd2 growth inhibitors, dose response, SYBR Green, cherry-picked samples (AID 1159567); type: functional, cell-based
[21] = CellTiter-Glo luminescence survival assay, SW480 colon tumor line, concentration-response curve, half-maximal inhibitory concentration (AID 1117338); type: functional
[22] = cytotoxicity toward HCT116 cells – cell-based, CellTiter-Glo luminescence, IC50, dose response (AID 1117332); type: functional; details: HCT-116
[23] = Reduced DLD-1 viability, concentration-response, CellTiter-Glo luminescence (AID 1117352); type: functional
[24] = RKO cell viability reduction, dose response, CellTiter-Glo luminescence (AID 1117322); type: functional
[25] = cytotoxicity toward Colo320 cells – cell-based, CellTiter-Glo luminescence, IC50, dose response (AID 1117334); type: functional; details: COLO 320
[26] = cytotoxicity toward HT-29 cells – cell-based, CellTiter-Glo luminescence, IC50, dose response (AID 1117330); type: functional
[27] = SNU-C1 cell viability reduction, dose response, CellTiter-Glo luminescence (AID 1117323); type: functional, cell-based

T4 sequence (P33261 whole entry): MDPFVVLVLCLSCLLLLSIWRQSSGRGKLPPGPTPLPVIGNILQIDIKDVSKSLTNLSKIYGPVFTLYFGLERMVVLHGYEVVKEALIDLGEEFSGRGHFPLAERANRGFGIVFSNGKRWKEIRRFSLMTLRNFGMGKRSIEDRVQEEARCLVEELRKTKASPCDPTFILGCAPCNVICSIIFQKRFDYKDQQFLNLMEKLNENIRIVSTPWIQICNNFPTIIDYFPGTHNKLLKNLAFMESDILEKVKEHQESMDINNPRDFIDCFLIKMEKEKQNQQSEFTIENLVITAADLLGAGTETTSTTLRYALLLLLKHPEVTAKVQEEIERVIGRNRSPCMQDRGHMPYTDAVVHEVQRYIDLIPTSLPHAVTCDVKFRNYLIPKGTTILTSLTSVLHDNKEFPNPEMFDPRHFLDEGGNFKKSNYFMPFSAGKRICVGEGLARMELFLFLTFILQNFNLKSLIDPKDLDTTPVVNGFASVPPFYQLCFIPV
Chain of Protein Tat (P04608 whole entry): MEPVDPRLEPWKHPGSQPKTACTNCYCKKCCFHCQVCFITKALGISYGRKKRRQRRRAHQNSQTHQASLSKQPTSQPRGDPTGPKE
Chain of Ephrin type-A receptor 4 (Q03137 whole entry, the tested form may be a part): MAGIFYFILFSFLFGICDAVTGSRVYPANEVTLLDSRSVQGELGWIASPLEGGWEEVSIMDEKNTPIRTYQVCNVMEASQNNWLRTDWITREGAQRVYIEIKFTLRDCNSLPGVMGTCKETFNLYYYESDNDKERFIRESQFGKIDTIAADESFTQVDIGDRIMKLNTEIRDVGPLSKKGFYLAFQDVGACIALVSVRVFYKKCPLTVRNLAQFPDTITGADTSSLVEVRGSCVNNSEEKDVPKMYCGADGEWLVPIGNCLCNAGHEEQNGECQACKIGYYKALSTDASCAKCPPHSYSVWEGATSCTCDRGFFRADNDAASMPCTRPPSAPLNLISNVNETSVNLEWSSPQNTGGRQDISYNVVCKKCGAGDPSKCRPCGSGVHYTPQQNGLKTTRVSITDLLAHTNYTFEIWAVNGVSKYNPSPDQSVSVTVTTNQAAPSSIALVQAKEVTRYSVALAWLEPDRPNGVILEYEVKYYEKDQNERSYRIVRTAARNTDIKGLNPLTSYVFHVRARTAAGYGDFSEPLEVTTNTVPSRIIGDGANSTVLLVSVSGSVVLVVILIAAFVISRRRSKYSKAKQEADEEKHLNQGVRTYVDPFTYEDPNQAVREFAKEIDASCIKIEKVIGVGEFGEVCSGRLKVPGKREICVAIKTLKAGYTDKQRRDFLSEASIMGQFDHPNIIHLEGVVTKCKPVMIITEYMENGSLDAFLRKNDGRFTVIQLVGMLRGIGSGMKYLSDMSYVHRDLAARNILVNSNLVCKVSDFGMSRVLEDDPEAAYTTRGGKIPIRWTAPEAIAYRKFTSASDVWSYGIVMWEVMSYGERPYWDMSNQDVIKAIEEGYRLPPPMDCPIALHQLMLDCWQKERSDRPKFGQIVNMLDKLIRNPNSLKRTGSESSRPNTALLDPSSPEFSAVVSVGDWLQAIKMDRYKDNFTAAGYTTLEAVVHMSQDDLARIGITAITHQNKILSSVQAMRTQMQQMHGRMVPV
Chain of Aryl hydrocarbon receptor (P35869 whole entry): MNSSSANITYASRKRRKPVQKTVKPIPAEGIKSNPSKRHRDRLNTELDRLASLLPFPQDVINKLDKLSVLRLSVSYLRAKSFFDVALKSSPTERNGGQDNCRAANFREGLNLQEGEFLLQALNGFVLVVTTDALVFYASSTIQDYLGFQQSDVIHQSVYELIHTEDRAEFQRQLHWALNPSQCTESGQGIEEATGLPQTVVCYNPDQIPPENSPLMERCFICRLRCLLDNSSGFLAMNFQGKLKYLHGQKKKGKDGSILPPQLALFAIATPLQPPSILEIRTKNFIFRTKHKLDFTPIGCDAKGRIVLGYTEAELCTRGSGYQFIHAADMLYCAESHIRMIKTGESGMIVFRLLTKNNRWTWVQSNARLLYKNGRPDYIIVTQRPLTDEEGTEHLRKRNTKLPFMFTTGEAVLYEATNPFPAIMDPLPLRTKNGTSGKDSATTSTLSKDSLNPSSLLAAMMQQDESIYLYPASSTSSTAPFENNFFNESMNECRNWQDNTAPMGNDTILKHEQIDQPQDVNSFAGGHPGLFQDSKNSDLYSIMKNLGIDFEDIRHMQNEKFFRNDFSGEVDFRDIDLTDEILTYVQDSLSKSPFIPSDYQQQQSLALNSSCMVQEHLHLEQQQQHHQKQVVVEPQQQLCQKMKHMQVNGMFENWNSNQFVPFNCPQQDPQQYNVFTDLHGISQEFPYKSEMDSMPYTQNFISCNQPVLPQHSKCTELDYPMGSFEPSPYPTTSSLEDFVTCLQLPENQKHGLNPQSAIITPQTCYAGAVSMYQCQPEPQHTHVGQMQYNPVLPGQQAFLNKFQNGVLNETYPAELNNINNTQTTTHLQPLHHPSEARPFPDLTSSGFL
Chain of Beta Lactamase (Q932Y6 whole entry): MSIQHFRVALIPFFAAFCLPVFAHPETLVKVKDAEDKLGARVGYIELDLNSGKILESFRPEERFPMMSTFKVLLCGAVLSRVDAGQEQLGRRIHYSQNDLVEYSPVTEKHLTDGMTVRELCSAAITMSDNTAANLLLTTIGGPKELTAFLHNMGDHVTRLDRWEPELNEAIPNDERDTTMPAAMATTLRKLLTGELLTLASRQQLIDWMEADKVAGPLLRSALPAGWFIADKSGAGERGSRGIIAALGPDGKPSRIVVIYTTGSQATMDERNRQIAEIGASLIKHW
Chain of Cytochrome P450 2C9 (P11712 whole entry): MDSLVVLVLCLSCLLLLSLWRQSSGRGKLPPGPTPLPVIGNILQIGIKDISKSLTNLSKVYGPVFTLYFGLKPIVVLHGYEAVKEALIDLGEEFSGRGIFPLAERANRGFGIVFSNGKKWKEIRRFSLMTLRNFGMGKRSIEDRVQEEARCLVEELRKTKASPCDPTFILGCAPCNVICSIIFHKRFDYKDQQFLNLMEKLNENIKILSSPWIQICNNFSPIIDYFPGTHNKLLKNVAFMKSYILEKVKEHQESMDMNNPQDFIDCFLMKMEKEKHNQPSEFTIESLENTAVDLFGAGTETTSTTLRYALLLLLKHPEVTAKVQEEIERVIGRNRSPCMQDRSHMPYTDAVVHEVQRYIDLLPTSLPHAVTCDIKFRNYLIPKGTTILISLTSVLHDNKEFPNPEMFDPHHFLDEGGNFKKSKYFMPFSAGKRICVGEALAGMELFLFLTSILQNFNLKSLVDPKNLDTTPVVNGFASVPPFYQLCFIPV

Compound: COc1ccc(NC(=O)NC(C)C2CC3CCC2C3)cc1 (stereo not given)
EC50 [1]: > 67.5 µM (inactive)
IC50 [2]: > 67.5 µM (inactive)

Compound: CN(C)c1ccc(/C=C/C(=O)c2cccc(Br)c2)cc1
IC50 (Ephrin type-A receptor 4): > 100 µM (not active)
IC50 (CHO): > 49.7 µM (inactive)
EC50 [3]: > 300 µM (inconclusive)
EC50 [4]: > 300 µM (not active)
IC50 (Beta Lactamase): 5.6 µM (active)

Compound: CC1CCCCN1CCNC(=O)CC1Oc2ccccc2NC1=O (stereo not given)
EC50 [1]: > 67.5 µM (inactive)
IC50 [2]: > 67.5 µM (inactive)

Compound: COc1cc2c(cc1OC)-c1c(O)c(OC)cc3c1[C@@H](C2)N(C)CC3
AC50 (Cytochrome P450 2C19 [7]): 25.1 µM (inconclusive)

Compound: O=C(C1CCCCC1)N1CC(=O)N2CCc3ccccc3[C@@H]2C1 [PRAZIQUANTEL, (R)-]
AC50 (Cytochrome P450 2C19 [8]): 5.01 µM (inconclusive)
AC50 (Cytochrome P450 2C9): inconclusive
AC50 (Cytochrome P450 2C19 [7]): 25.1 µM (inconclusive)

Compound: CN(c1ccc2nc3ccccc3c(=O)n2n1)C1CCCCC1
AC50 [10]: 1.29 µM (active)
AC50 [11]: 6.5 µM (active)
IC50 (Protein Tat): > 100 µM (active)
AC50 [12]: 26.9 µM (active)
AC50 [13]: 2.13 µM (active)
AC50 [14]: 6.41 µM (active)
AC50 [15]: 31.1 µM (active)
CC50 [6]: 36.6 µM (active)
EC50 [16]: < 0.16 µM (active)

Compound: Cc1ccc(CNC(=O)CN2CCC(C(N)=O)CC2)cc1
IC50 (Ephrin type-A receptor 4): > 100 µM (not active)

Compound: O=C(Cc1ccccc1)N1CC(=O)N2[C@H](CO)[C@H](c3ccc(C#Cc4ccccc4)cc3)[C@H]2C1
AC50 [17]: 0.0291 µM (active)
AC50 [18]: 0.0554 µM (active)
AC50 [19]: 0.0288 µM (active)
AC50 [20]: < 0.3 µM (active)

Compound: OC[C@@H](O)[C@H](O)[C@H](O)[C@@H](O)CO [GALACTITOL]
IC50 [21]: > 20 µM (inactive)
IC50 [22]: > 20 µM (inactive)
IC50 [23]: > 20 µM (inactive)
IC50 [24]: > 20 µM (inactive)
IC50 [25]: > 20 µM (inactive)
IC50 [26]: > 20 µM (inactive)
IC50 [27]: > 20 µM (inactive)

Further lines, with some results ahead:

IC50 [5]: > 60.7 µM (active)
Compound: Cc1cc(C)cc(NC2=CC(=O)CC(c3ccco3)C2)c1 (stereo not given)
CC50 [6]: 25.1 µM (active)

IC50 [5]: > 100 µM (active)
Compound: COc1cc(C(=O)Nc2cccc(-c3nc4ncccc4o3)c2C)cc(OC)c1OC

IC50 (Protein Tat): > 100 µM (active)
Compound: FC(F)(F)c1cc(-c2ccco2)nc(NCc2cccnc2)n1

EC50 [9]: 3.38 µM (active)
Compound: O=S(=O)(NNc1ncc(C(F)(F)F)cc1Cl)c1ccc(F)cc1F

EC50 [9]: 1.17 µM (active)
Compound: Cc1c(-c2cc[nH]n2)cc(NC(=O)c2ccc(Cl)cc2)c(=O)n1N
